{
  "source": "patent US20190201418A1",
  "about": "“TREATMENT OF UTERINE FIBROIDS BY INTRAVAGINAL ADMINISTRATION OF A LOW DOSE OF SELECTIVE PROGESTERONE RECEPTOR MODULATOR (SPRM), ANTI-PROGESTIN, OR ANTI-PROGESTATIONAL AGENT” (ARSTAT, INC., priority 2011, published 2019)",
  "origin": "cited, not measured here",
  "key": {"liver enzymes": {"test_system": "liver enzymes", "conditions": "oral"}, "glucocorticoid blockade": {"test_system": "glucocorticoid blockade", "conditions": "in vivo"}, "[1]": {"test_system": "symptomatic uterine fibroids", "conditions": "oral 5-mg and 10-mg tablets, Phase III"}, "[2]": {"test_system": "endometrial lining of the uterus", "conditions": "oral"}, "[3]": {"conditions": "oral mifepristone 10 mg/day or higher"}},
  "data": [
    {"molecule": "COCC(=O)[C@@]1(OC(C)=O)CC[C@H]2[C@@H]3CCC4=CC(=O)CCC4=C3[C@@H](c3ccc(N(C)C)cc3)C[C@@]21C", "note": "[CDB-4124]", "values": [
      {"measurement": "safety finding leading to suspension of the Phase III studies", "setting": "liver enzymes", "result": "significant increases in liver enzymes"}
    ]},
    {"molecule": "CC#C[C@]1(O)CC[C@H]2[C@@H]3CCC4=CC(=O)CCC4=C3[C@@H](c3ccc(N(C)C)cc3)C[C@@]21C", "note": "[mifepristone]", "values": [
      {"measurement": "reduction of uterine volume and incidence of amenorrhea", "setting": "uterine fibroids; oral mifepristone 2.5 mg/day", "result": "appreciably smaller reduction of uterine volume and a lower incidence of amenorrhea"},
      {"measurement": "ability to reduce uterine volume and eliminate fibroid-related symptoms", "setting": "uterine fibroids; oral mifepristone 5 mg", "result": "limited"},
      {"measurement": "incidence of side effects (endometrial hyperplasia, hot flashes, elevated liver enzymes)", "setting": "uterine fibroids; [3]", "result": "seems to be greater than desired"},
      {"measurement": "reduction of uterine and fibroid volumes and related symptoms", "setting": "uterine fibroids; [3]", "result": "effective in the reduction of uterine and fibroid volumes and related symptoms"},
      {"measurement": "dose at which glucocorticoid blockade is reported", "setting": "glucocorticoid blockade", "result": "≥ 50", "unit": "mg"}
    ]},
    {"molecule": "CC(=O)O[C@]1(C(C)=O)CC[C@H]2[C@@H]3CCC4=CC(=O)CCC4=C3[C@@H](c3ccc(N(C)C)cc3)C[C@@]21C", "note": "[ulipristal acetate]", "values": [
      {"measurement": "efficacy and safety in the treatment of symptomatic uterine fibroids", "setting": "[1]", "result": "confirmed the efficacy and safety"}
    ]},
    {"molecule": "COC[C@]1(OC)CC[C@H]2[C@@H]3CCC4=CC(=O)CCC4=C3[C@@H](c3ccc(/C=N/O)cc3)C[C@@]21C", "note": "[asoprisnil]", "values": [
      {"measurement": "safety finding leading to termination of the Phase III studies", "setting": "[2]", "result": "changes in the endometrial lining of the uterus that resulted in additional invasive procedures in some patients"}
    ]}
  ]
}
